The values that follow come from US20230165836A1, “ALPHA-2 ADRENERGIC RECEPTOR AGONISTS FOR THE TREATMENT OF CANCER” (UNIVERSITÉ CATHOLIQUE DE LOUVAIN, priority 2020, published 2023).

One series has as its system MC38 colon cancer. Put plainly: MC38 colon cancer tumor growth (FIG. 25A). In kind it is in vivo, mice. The settings on record: 5 mg/kg, i.p. How it is done: (§1) FIGS. 25A-B is a set of curves showing the tumor growth of MC38 (FIG. 25A) or CT26 (FIG. 25B) colon cancer in mice treated with PBS (Control; closed circles), clonidine (5 mg/kg, i.p; closed squares) or apraclonidine (5 mg/kg, i.p; closed triangles).

The test system of the next series is CT26 colon cancer. Description: CT26 colon cancer tumor growth (FIG. 25B). In kind it is in vivo, mice. The settings on record: 5 mg/kg, i.p. How it is done:
as §1

The conditions of series [1]: stated without a test; cited from earlier work.
A further series deals with cholangiocarcinoma. The settings on record: in vitro; Kanno et al., Hepatology, 2002; cited from earlier work.

Regarding `Nc1cc(Cl)c(N=C2NCCN2)c(Cl)c1` [apraclonidine], the tumor growth entry with MC38 colon cancer and with CT26 colon cancer was “anti-tumor effect” in each case. Moreover, the “crossing of the blood-brain barrier” value in series [1] was “does not cross the blood-brain barrier”.

On to brimonidine tartrate [UK14,304], for which the cholangiocarcinoma growth result in the series with cholangiocarcinoma is “significantly decreases cholangiocarcinoma growth”.
